The values that follow come from patent US6455541B1, “Suppression, by 5-lipoxygenase inhibitors, of bone resorption” (Board of Regents, The University of Texas System, priority 1994, dated 2002).

Several values for one entry are separate records, joined by “and”; a condition that tells them apart may be missing. Equal entries are not always repeated.

One assay deals with neonatal mouse calvariae. Kind of assay: Neonatal mouse (murine) calvarial assay, 45Ca release. To be noted: 1,25D3 10^−10M. In kind it is cell-based. As for the experimental part:
The assay was performed as described by Gowen et al. (1983). Timed pregnant mice were injected with ^45Ca 2 days before parturition. Half-calvaria were removed from the 1-2-day-old pups and preincubated for 24 h in BGJb medium at 37° C. in a humidified atmosphere of 5% CO2 before transfer to fresh media with or without test substances for 48 h. The bones were incubated for a further 72 h and media and bones collected. Bone-resorbing activity was expressed as the percentage of the total ^45Ca released into the medium.

The next assay concerns C433 cells. Kind of assay: Radioimmunoassay of 5-HETE in C433-conditioned media. Type of assay: cell-based, human. To be noted: +1,25-(OH)2 vitamin D3 10^−8 M, duplicate. As for the experimental part:
The radioimmunoassays for 5-HETE were purchased from Advanced Magnetics, Inc. (Cambridge, Mass.).
C433 cells were grown in 10% fetal bovine serum (Whittaker, Walkersville, Md.) 50% RPMI, 50% McCoys (Flow, McLean, Va.) until a density of 10^4 cells/ml was obtained, at which time the cells were harvested, washed, […] This conditioned medium was applied to a prewetted C18 Sep-Pak (Millipore, Waters, Milford, Mass.), and bound material was extracted using ethyl acetate. This material was dried under nitrogen and resuspended in water, it acetic acid and analyzed by high pressure measure liquid chromatography (HPLC) (Waters, Milford, Mass.) applied to a C8 semipreparative 25 cm×10 mm reverse phase column (Keystone Scientific, Inc., Bellefonte, Pa.) at 2 ml/min. The gradient was 0-100% methanol, 1% acetic acid over 60 min with 6-ml fractions collected. The fractions were dried under nitrogen, and those fractions to be assayed for osteoclast stimulating activity were stabilized with 20 μl of 10% bovine serum albumin. Fractions to be used for gas chromatography-mass spectrometric analysis were prepared for derivatization.
To confirm that C433-conditioned medium contained these 5-LO metabolites and that production was hormonally regulated, radioimmunoassays were performed for 5-HETE using commercially available kits. […]

`C=C1/C(=C\C=C2/CCC[C@]3(C)[C@@H]([C@H](C)CCCC(C)(C)O)CC[C@@H]23)C[C@@H](O)C[C@@H]1O` [1,25D3, 1,25 dihydroxyvitamin D3]: in the assay with neonatal mouse calvariae (IL-1 1 × 10^−10M), the “45Ca release, factor alone (Table IV)” value was determined as 37.2%. The “45Ca release, Factor alone (Table II)” value in the assay on neonatal mouse calvariae (IL-1 5 × 10^−10M, TNF 2 × 10^−10M, Lymphotoxin 5 × 10^−9M, PTH 4 ng/ml) was 35.3% and 31.8% and 37.0%. Further, the “5-HETE in C433-conditioned media” value is 3.36 pg/mL and 3.53 pg/mL with C433 cells (6 h); 11.07 pg/mL and 11.68 pg/mL in the assay on C433 cells (12 h).
